Source: US8889881B2, “Compound having skin-whitening, anti-oxidizing and PPAR activities and medical use therefor” (Pusan National University Industry —University Cooperation …, priority 2011, dated 2014)
Entries after “also recorded” stand apart in the source; their conditions may differ.

Columns and labels:
[1] = molecular target: T1, PPAR gamma-LBD (Homo sapiens, UniProt P37231); experiment: PPAR assay, PPARγ; assay type: binding; conditions: sample final concentration 100 μM; positive control rosiglitazone; FIGS. 7 and 8
T1 sequence (P37231 238-503 limits assumed): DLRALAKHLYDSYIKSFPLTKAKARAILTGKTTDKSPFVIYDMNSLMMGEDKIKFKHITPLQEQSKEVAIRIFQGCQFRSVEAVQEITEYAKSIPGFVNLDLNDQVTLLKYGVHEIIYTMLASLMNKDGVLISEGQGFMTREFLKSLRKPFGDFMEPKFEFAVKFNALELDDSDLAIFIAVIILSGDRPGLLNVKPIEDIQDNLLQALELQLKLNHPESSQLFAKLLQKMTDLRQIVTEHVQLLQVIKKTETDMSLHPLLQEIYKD

[2] = molecular target: T2, PPAR alpha-LBD (Homo sapiens, UniProt Q07869); experiment: PPAR assay, PPARα; conditions: for PPARα activation (competitive activation rate), compared with fenofibrate: sample final concentration 100 μM, positive control fenofibrate, FIGS. 5 and 6; for simultaneous activation of PPARα and PPARγ: summary of the PPARα and PPARγ assays, sample 100 μM
T2 sequence (Q07869 239-466 limits assumed): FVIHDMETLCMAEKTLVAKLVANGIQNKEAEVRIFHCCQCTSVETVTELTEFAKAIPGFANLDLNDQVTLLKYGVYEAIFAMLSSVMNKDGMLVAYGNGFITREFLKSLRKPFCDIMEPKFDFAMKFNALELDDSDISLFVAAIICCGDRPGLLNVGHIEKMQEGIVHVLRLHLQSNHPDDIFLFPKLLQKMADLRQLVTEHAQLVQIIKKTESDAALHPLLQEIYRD

Structure (SMILES) | melting point [°C] | other results
O=C(O)[C@@H]1CSC(c2ccc(O)cc2)N1 (mixture of isomers) [Compound 1, (2R/S,4R)-2-(4-hydroxyphenyl)thiazolidine-4-carboxylic acid] | 161.8 to 164.4 | 
COc1ccc(C2N[C@H](C(=O)O)CS2)cc1OC (mixture of isomers) [Compound 8, (2R/S,4R)-2-(3,4-dimethoxyphenyl)thiazolidine-4-carboxylic acid] | 173.6 to 175.4 | 
COc1cc(C2N[C@H](C(=O)O)CS2)cc(OC)c1O (mixture of isomers) [Compound 12, (2R/S,4R)-2-(4-hydroxy-3,5-dimethoxyphenyl)thiazolidine-4-carboxylic acid] | 139.6 to 141 | 
COc1cc(-c2nc3ccccc3s2)ccc1O [Compound 16, 4-(benzo[d]thiazol-2-yl)-2-methoxyphenol] |  | PPARγ activation (competitive activation rate), compared with rosiglitazone [1]: very excellent PPARγ activation agent compared to rosiglitazone; PPARα activation (competitive activation rate), compared with fenofibrate [2]: very excellent PPARα activation agent compared to fenofibrate; simultaneous activation of PPARα and PPARγ [2]: simultaneously activates PPARα and PPARγ
CCOc1cc(-c2nc3ccccc3s2)ccc1O [Compound 17, 4-(benzo[d]thiazol-2-yl)-2-ethoxyphenol] |  | PPARγ activation (competitive activation rate), compared with rosiglitazone [1]: very excellent PPARγ activation agent compared to rosiglitazone; PPARα activation (competitive activation rate), compared with fenofibrate [2]: very excellent PPARα activation agent compared to fenofibrate; simultaneous activation of PPARα and PPARγ [2]: simultaneously activates PPARα and PPARγ
COc1ccc(-c2nc3ccccc3s2)c(OC)c1 [Compound 22, 2-(2,4-dimethoxyphenyl)benzo[d]thiazole] | 137.4 to 138.9 | 
Oc1ccc(-c2nc3ccccc3s2)cc1Br [Compound 26, 4-(benzo[d]thiazol-2-yl)-2-bromophenol] |  | PPARγ activation (competitive activation rate), compared with rosiglitazone [1]: the most excellent PPARγ activation agent; also recorded: very excellent PPARγ activation agent compared to rosiglitazone; PPARα activation (competitive activation rate), compared with fenofibrate [2]: the most excellent PPARα activation agent; also recorded: very excellent PPARα activation agent compared to fenofibrate; simultaneous activation of PPARα and PPARγ [2]: simultaneously activates PPARα and PPARγ
COc1ccc(-c2nc3cc(C(F)(F)F)ccc3s2)cc1O [Compound 33, 2-methoxy-5-(5-(trifluoromethyl)benzo[d]thiazol-2-yl)phenol] | 142.1 to 144.5 | 
COc1ccc(-c2nc3cc(C(F)(F)F)ccc3s2)cc1OC [Compound 35, 2-(3,4-dimethoxyphenyl)-5-(trifluoromethyl)benzo[d]thiazole] | 120.4 to 121.6 | 
Oc1cc(O)cc(-c2nc3cc(C(F)(F)F)ccc3s2)c1 [Compound 36, 5-(5-(trifluoromethyl)benzo[d]thiazol-2-yl)benzene-1,3-diol] | 256.7 to 260.6 | 
COc1ccc(-c2nc3cc(C(F)(F)F)ccc3s2)c(OC)c1 [Compound 37, 2-(2,4-dimethoxyphenyl)-5-(trifluoromethyl)benzo[d]thiazole] | 140.4 to 141.6 | 
Oc1ccc(-c2nc3ccccc3[nH]2)cc1 [Compound 43, 4-(1H-benzo[d]imidazol-2-yl)phenol] |  | PPARγ activation (competitive activation rate), compared with rosiglitazone [1]: very excellent PPARγ activation agent compared to rosiglitazone; PPARα activation (competitive activation rate), compared with fenofibrate [2]: very excellent PPARα activation agent compared to fenofibrate; simultaneous activation of PPARα and PPARγ [2]: simultaneously activates PPARα and PPARγ
CCOc1cc(-c2nc3ccccc3[nH]2)ccc1O [Compound 47, 4-(1H-benzo[d]imidazol-2-yl)-2-ethoxyphenol] |  | PPARγ activation (competitive activation rate), compared with rosiglitazone [1]: very excellent PPARγ activation agent compared to rosiglitazone; PPARα activation (competitive activation rate), compared with fenofibrate [2]: very excellent PPARα activation agent compared to fenofibrate; simultaneous activation of PPARα and PPARγ [2]: simultaneously activates PPARα and PPARγ
Oc1ccc(-c2nc3ccccc3[nH]2)cc1Br [Compound 56, 4-(1H-benzo[d]imidazol-2-yl)-2-bromophenol] |  | PPARγ activation (competitive activation rate), compared with rosiglitazone [1]: very excellent PPARγ activation agent compared to rosiglitazone
O=C(O)c1ccc2[nH]c(-c3ccc(O)cc3)nc2c1 [Compound 57, 2-(4-hydroxyphenyl)-1H-benzo[d]imidazole-5-carboxylic acid] | > 300 | 
COc1cc(-c2nc3cc(C(=O)O)ccc3[nH]2)ccc1O [Compound 60, 2-(4-hydroxy-3-methoxyphenyl)-1H-benzo[d]imidazole-5-carboxylic acid] | > 300 | 
COc1cc(-c2nc3cc(C(=O)O)ccc3[nH]2)cc(OC)c1O [Compound 68, 2-(4-hydroxy-3,5-dimethoxyphenyl)-1H-benzo[d]imidazole-5-carboxylic acid] | 280 to 281.4 | 
Oc1ccc(-c2nc3cc(Cl)ccc3s2)c(O)c1 [Compound 84, 4-(5-chlorobenzo[d]thiazol-2-yl)benzene-1,3-diol] | 277.9 to 280.1 | 
COc1ccc(-c2nc3cc(Cl)ccc3s2)cc1O [Compound 87, 5-(5-chlorobenzo[d]thiazol-2-yl)-2-methoxyphenol] | 158.2 to 158.6 | 
COc1ccc(-c2nc3cc(Cl)ccc3s2)cc1OC [Compound 89, 5-chloro-2-(3,4-dimethoxyphenyl)benzo[d]thiazole] | 165.2 to 167.1 | 
Oc1cc(O)cc(-c2nc3cc(Cl)ccc3s2)c1 [Compound 90, 5-(5-chlorobenzo[d]thiazol-2-yl)benzene-1,3-diol] | 129.6 to 130.6 | 
COc1ccc(-c2nc3cc(Cl)ccc3s2)c(OC)c1 [Compound 91, 5-chloro-2-(2,4-dimethoxyphenyl)benzo[d]thiazole] | 138.6 to 140.3 | 
COc1cc(-c2nc3cc(Cl)ccc3s2)cc(OC)c1OC [Compound 93, 5-chloro-2-(3,4,5-trimethoxyphenyl)benzo[d]thiazole] | 159.4 to 160 | 
c1ccc(COc2ccc(-c3nc4ccccc4s3)cc2)cc1 [Compound 107, 2-(4-(benzyloxy)phenyl)benzo[d]thiazole] | 166.1 to 167.2 | 
FC(F)(F)c1ccc2sc(-c3ccc(OCc4ccccc4)cc3)nc2c1 [Compound 108, 2-(4-(benzyloxy)phenyl)-5-(trifluoromethyl)benzo[d]thiazole] | 194.3 to 195.1 | 
c1ccc(COc2cccc(-c3nc4ccccc4s3)c2)cc1 [Compound 110, 2-(3-(benzyloxy)phenyl)benzo[d]thiazole] | 121.5 to 122.1 | 
c1ccc(COc2ccc(-c3nc4ccccc4[nH]3)cc2)cc1 [Compound 114, 2-(4-(benzyloxy)phenyl)-1H-benzo[d]imidazole] |  | PPARα activation (competitive activation rate), compared with fenofibrate [2]: very excellent PPARα activation agent compared to fenofibrate

Second part, led by results:

melting point [°C] | Structure (SMILES) | other results
174.3 to 175.9 | CCOc1cc(C2N[C@H](C(=O)O)CS2)ccc1O (mixture of isomers) [Compound 5, (2R/S,4R)-2-(3-ethoxy-4-hydroxyphenyl)thiazolidine-4-carboxylic acid] | 
197 to 199.7 | COc1cc(C2N[C@H](C(=O)O)CS2)cc(OC)c1OC (mixture of isomers) [Compound 11, (2R/S,4R)-2-(3,4,5-trimethoxyphenyl)thiazolidine-4-carboxylic acid] | 
274.5 to 276.5 | Oc1cc(O)cc(-c2nc3ccccc3s2)c1 [Compound 21, 5-(benzo[d]thiazol-2-yl)benzene-1,3-diol] | 
175 to 176.5 | Oc1ccccc1-c1nc2cc(C(F)(F)F)ccc2s1 [Compound 38, 2-(5-(trifluoromethyl)benzo[d]thiazol-2-yl)phenol] | 
132.5 to 134 | COc1cc(-c2nc3cc(C(F)(F)F)ccc3s2)cc(OC)c1OC [Compound 39, 5-(trifluoromethyl)-2-(3,4,5-trimethoxyphenyl)benzo[d]thiazole] | 
257 to 257.7 | COc1cc(-c2nc3ccccc3[nH]2)cc(OC)c1OC [Compound 54, 2-(3,4,5-trimethoxyphenyl)-1H-benzo[d]imidazole] | 
> 300 | CCOc1cc(-c2nc3cc(C(=O)O)ccc3[nH]2)ccc1O [Compound 61, 2-(3-ethoxy-4-hydroxyphenyl)-1H-benzo[d]imidazole-5-carboxylic acid] | 
246.6 to 247.7 | COc1ccc(-c2nc3cc(C(=O)O)ccc3[nH]2)cc1O [Compound 62, 2-(3-hydroxy-4-methoxyphenyl)-1H-benzo[d]imidazole-5-carboxylic acid] | 
194.2 to 195.7 | Oc1ccccc1-c1nc2cc(Cl)ccc2s1 [Compound 92, 2-(5-chlorobenzo[d]thiazol-2-yl)phenol] | 
142.7 to 143.3 | Clc1ccc2sc(-c3ccc(OCc4ccccc4)cc3)nc2c1 [Compound 109, 2-(4-(benzyloxy)phenyl)-5-chlorobenzo[d]thiazole] | 
93.8 to 95.1 | FC(F)(F)c1ccc2sc(-c3cccc(OCc4ccccc4)c3)nc2c1 [Compound 111, 2-(3-(Benzyloxy)phenyl)-5-(trifluoromethyl)benzo[d]thiazole] | 
